Laboratory results published in article PMC10709440, “High-throughput ligand profile characterization in novel cell lines expressing seven heterologous insect olfactory receptors for the detection of volatile plant biomarkers” (Scientific Reports, 2023).
Where “and” joins values, the source holds several entries; their conditions need not be identical. Equal values may be shown once.

How the values were obtained:
[1] = system: OR13a; parameters: method as in earlier work; settings: DoOR database value; ref DoOR; cited from earlier work
[2] = target: T1, Drosophila OR49b (Drosophila melanogaster, UniProt Q9V6H2); assay: cell-based
T1 construct: expressed in transfected cells
T1 sequence (Q9V6H2 1-375): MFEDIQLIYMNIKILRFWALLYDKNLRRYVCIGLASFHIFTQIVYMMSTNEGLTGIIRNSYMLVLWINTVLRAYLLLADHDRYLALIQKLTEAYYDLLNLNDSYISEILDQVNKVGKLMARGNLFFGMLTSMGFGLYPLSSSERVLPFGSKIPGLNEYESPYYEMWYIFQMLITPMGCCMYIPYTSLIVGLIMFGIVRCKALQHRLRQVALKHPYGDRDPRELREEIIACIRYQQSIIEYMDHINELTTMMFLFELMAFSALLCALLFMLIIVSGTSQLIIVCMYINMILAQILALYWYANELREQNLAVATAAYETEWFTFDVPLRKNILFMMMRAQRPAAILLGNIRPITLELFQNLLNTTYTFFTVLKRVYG
T1 sequence (Q9VNB5 1-486 partner): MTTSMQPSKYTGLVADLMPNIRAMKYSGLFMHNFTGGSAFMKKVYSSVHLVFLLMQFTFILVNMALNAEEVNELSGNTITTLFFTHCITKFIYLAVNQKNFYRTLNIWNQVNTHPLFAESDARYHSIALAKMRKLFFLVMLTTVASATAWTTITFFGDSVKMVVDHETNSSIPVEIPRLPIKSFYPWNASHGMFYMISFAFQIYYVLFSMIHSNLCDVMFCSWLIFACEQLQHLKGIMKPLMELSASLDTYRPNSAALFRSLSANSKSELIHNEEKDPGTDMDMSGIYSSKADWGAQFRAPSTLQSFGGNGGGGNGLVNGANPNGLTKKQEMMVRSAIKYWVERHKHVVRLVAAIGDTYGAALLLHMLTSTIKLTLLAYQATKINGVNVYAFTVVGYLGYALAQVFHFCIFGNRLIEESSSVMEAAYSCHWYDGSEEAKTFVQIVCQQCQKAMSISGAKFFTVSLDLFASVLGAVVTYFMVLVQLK
Protocol: (§1) These VUAA1 normalized ∆F values were used to compare the different receptors and ligands.
(§2) The concentration-dependent effect of the reference ligands on their cognate cell lines was examined in more detail. Twelve different ligand concentrations were measured on each cell line in an overall 0.01 μM to 100 μM concentration range with 5 repetitions with three technical replicates each time.
(§3) Twelve thousand to 18,000 cells were plated into each well of a black wall, transparent bottom 384-well microplate (Greiner) 48 h or 72 h before the measurements and were simultaneously treated with 1 μg/mL doxycycline. […] The plate has 24 columns, thus we could record responses in up to eight different cell lines in each plate. On the day of the experiment, the growth medium was replaced with 20 µL assay buffer/well (140 mM NaCl, 5 mM KCl, 2 mM CaCl2, 1 mM MgCl2, 5 mM HEPES-Na, 20 mM glucose, pH 7.3, 340 mOsm). […] Baseline fluorescence (F0) was recorded for 5 s, after which 7 µL VOC buffer (140 mM NaCl, 5 mM KCl, 2 mM CaCl2, 1 mM MgCl2, 5 mM HEPES-Na, 31 mM glucose, 0.1% DMSO, pH 7.3, 340 mOsm) was injected into each well in one row and the fluorescence response was recorded for an additional 30 s, at a rate of one read/sec. VOC solutions (VOC buffer with 4× concentration of the final measured VOC concentration, 9 µL/well was injected) were measured on the same wells in a second round with the same protocol. Each individual concentration of a specific VOC sample was recorded in three wells for the same cell line on the same microplate. The raw data were exported in xls file format, F0 and FMAX values, and the fluorescence intensity changes (∆F) were calculated in Excel (Microsoft) (Supplementary file Data summary.xlsx) using the following equation: ΔF=FMAX-F0/F0 (see also Fig. 1C). On each plate, we recorded the response of each cell line to 50 µM VUAA1. The average of these ∆F values of each cell line were used to calculate the VUAA1-normalized values for the rest of the plate, by dividing VOC response ∆F values by the average VUAA1 response ∆F value of the corresponding OR cell line. Each VOC-OR combination was measured three times as technical replicates. […] The average of these replicates were used as one ∆F and VUAA1-normalized ∆F in the following analysis.
(§4) In the next rows we tested the reference VOCs (or other VOCs known to activate the corresponding cell lines), in order to test if all cell lines are responsive. The remaining rows were used to test VOCs with unknown effect.
(§5) The recorded FMAX, F0, ∆F, VUAA1-normalized ∆F values, as well as the OR name, the name of the tested sample, and the final concentration for each well were copied into supplementary file Data summary.xlsx, that was used to summarize all the plates recorded. Here, the averages of the measurements were calculated for each receptor-VOC-concentration combination.

[3] = system: OR49b; settings: 80 μM; OR49b transiently in HEK293T cells; cited from earlier work
[4] = system: OR49b; parameters: method as in PMID 23329732; settings: OR49b in Xenopus oocytes; read-out: calculated EC50; cited from earlier work
[5] = target: T2, ORCO (Drosophila melanogaster, UniProt Q9VNB5); assay: Origin of Ca2+ test, (GCaMP6-GSG)ORCO cell line; assay type: cell-based; settings: assay buffer lacking Ca2+, and lacking Ca2+ and containing EGTA
T2 sequence (Q9VNB5 1-486): T1 sequence (Q9VNB5 1-486 partner)
Excerpt: We tested for the origin of the Ca^2+ ions on two cell lines, OR47a and (GCaMP6-GSG)ORCO, with assay buffer lacking Ca^2+ and assay buffer lacking Ca^2+ and containing EGTA.

[6] = target: T3, Drosophila OR47a (Drosophila melanogaster, UniProt P81921); assay: Calcium ion fluorescence (GCaMP6) assay, OR47a stable HEK293 cell line; assay type: cell-based; settings: OR47a cell line; assay buffer lacking Ca2+, and lacking Ca2+ and containing EGTA
T3 construct: expressed in transfected cells
T3 sequence (P81921 1-385): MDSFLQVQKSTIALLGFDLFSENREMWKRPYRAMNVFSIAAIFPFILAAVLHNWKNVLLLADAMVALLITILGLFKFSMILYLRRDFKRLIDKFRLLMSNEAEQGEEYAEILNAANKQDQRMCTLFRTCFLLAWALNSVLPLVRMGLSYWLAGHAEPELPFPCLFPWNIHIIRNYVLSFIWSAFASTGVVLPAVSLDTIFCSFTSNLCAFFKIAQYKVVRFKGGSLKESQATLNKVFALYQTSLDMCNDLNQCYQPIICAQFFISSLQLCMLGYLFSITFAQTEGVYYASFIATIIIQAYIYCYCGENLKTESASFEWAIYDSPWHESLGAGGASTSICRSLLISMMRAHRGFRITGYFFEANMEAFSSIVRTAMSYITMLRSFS
T3 sequence (Q9VNB5 1-486 partner): T1 sequence (Q9VNB5 1-486 partner)
Protocol: as §1, §2, §3, §4, §5

[7] = target: T4, Drosophila OR10a (Drosophila melanogaster, UniProt Q9VYZ1); assay: Calcium ion fluorescence (GCaMP6) assay, OR10a stable HEK293 cell line; assay type: cell-based; settings: 50 µM, OR10a clone G5, single plate 2019.12.05
T4 construct: expressed in transfected cells
T4 sequence (Q9VYZ1 1-406): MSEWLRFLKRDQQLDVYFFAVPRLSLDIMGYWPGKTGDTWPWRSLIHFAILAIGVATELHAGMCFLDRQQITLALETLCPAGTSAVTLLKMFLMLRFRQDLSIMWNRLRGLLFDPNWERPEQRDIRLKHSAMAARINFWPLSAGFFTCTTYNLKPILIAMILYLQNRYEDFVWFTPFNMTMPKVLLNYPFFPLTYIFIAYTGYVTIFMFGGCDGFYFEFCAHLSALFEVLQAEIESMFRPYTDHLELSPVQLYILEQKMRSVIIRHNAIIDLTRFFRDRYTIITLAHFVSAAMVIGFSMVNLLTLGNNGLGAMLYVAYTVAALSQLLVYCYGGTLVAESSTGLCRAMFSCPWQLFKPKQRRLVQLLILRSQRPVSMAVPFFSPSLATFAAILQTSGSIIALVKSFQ
T4 sequence (Q9VNB5 1-486 partner): T1 sequence (Q9VNB5 1-486 partner)
Protocol: as §1, §2, §3, §4, §5

[8] = system: T5, OR cell lines (OR + ORCO); assay: Maximum fluorescence change of the OR cell lines, long term stability testing / VUAA1 check; assay type: cell-based, Drosophila melanogaster
T5 construct: expressed in transfected cells
Protocol: as §1
Twelve thousand to 18,000 cells were plated into each well of a black wall, transparent bottom 384-well microplate (Greiner) 48 h or 72 h before the measurements and were simultaneously treated with 1 μg/mL doxycycline. […] The plate has 24 columns, thus we could record responses in up to eight different cell lines in each plate. On the day of the experiment, the growth medium was replaced with 20 µL assay buffer/well (140 mM NaCl, 5 mM KCl, 2 mM CaCl2, 1 mM MgCl2, 5 mM HEPES-Na, 20 mM glucose, pH 7.3, 340 mOsm). […] Baseline fluorescence (F0) was recorded for 5 s, after which 7 µL VOC buffer (140 mM NaCl, 5 mM KCl, 2 mM CaCl2, 1 mM MgCl2, 5 mM HEPES-Na, 31 mM glucose, 0.1% DMSO, pH 7.3, 340 mOsm) was injected into each well in one row and the fluorescence response was recorded for an additional 30 s, at a rate of one read/sec. VOC solutions (VOC buffer with 4× concentration of the final measured VOC concentration, 9 µL/well was injected) were measured on the same wells in a second round with the same protocol. Each individual concentration of a specific VOC sample was recorded in three wells for the same cell line on the same microplate. […] On each plate, we recorded the response of each cell line to 50 µM VUAA1. […] Each VOC-OR combination was measured three times as technical replicates. […]

[9] = OR49b, average of 5 biological replicates
[10] = OR49b, fit of each biological replicate
[11] = OR49b, fit of the averaged curve

## CC(=O)CCC=C(C)C [6-methyl-5-hepten-2-one]
[1]
  OR13a DoOR response: 0.44

## Cc1ccccc1O [2-methylphenol]
[2]; EC50 (fitted parameter), OR49b, fit of each biological replicate
  EC50: 3.35 µM and 16.1 µM and 14.8 µM and 21 µM and 31.6 µM
[2]; EC50, AVERAGE, OR49b, arithmetic average of 5 replicate EC50
  EC50: 17.4 µM
[2]; EC50, FITTED AVERAGE CURVE, OR49b, fit of the averaged curve
  EC50: 24.4 µM
[2]; EC50, OR49b cell line, fitted Hill equation, Hill coefficient constrained to 1, maximal response max 1
  EC50: 13.9 µM
[2]; LOG EC50 (fitted parameter), OR49b, fit of each biological replicate, log of EC50, unit inferred
  EC50: 3.35 µM and 16.1 µM and 14.8 µM and 21 µM and 31.6 µM
[2]; LOG EC50, AVERAGE, OR49b, average of 5 biological replicates
  EC50: 14 µM
[2]; OR49b, VOC concentration 0.075
  response, AVERAGE: 0
  response, biological replicates: 0
[2]; OR49b, VOC concentration 0.15
  response, AVERAGE: 0
  response, biological replicates: 0
[2]; OR49b, VOC concentration 0.3
  response, AVERAGE: 0.0628
  response, biological replicates: 0 (2×) and 0.1244 and 0.09727 and 0.09231
[2]; OR49b, VOC concentration 0.6
  response, AVERAGE: 0.04614
  response, biological replicates: 0 (3×) and 0.1263 and 0.1043
[2]; OR49b, VOC concentration 1.25
  response, AVERAGE: 0.07731
  response, biological replicates: 0 (2×) and 0.1346 and 0.1269 and 0.1251
[2]; OR49b, VOC concentration 2.5
  response, AVERAGE: 0.06463
  response, biological replicates: 0.1405 and 0 (2×) and 0.06363 and 0.119
[2]; OR49b, VOC concentration 5
  response, AVERAGE: 0.1447
  response, biological replicates: 0.2459 and 0.1808 and 0.1356 and 0.1611 and 0
[2]; OR49b, VOC concentration 10
  response, AVERAGE: 0.2704
  response, biological replicates: 0.4119 and 0.3158 and 0.288 and 0.1952 and 0.1409
[2]; OR49b, VOC concentration 20
  response, AVERAGE: 0.5849
  response, biological replicates: 0.5662 and 0.6184 and 0.7088 and 0.601 and 0.43
[2]; OR49b, VOC concentration 40
  response, AVERAGE: 0.6048
  response, biological replicates: 0.5892 and 0.7837 and 0.6143 and 0.432
[2]; OR49b, VOC concentration 60
  response, AVERAGE: 0.7233
  response, biological replicates: 0.8924 and 0.8145 and 0.74 and 0.4464
[2]; OR49b, VOC concentration 80
  response, AVERAGE: 0.613
  response, biological replicates: 0 and 0.9414 and 0.8681 and 0.8023 and 0.453
[2]; OR49b, VOC concentration 100
  response, AVERAGE: 0.818
  response, biological replicates: 0.8641 and 0.8887 and 0.8515 and 0.6679
[2]; [9]
  AVERAGE MAX: 0.8353
  n, AVERAGE: 1
[2]; [10]
  MAX (fitted parameter): 0.4157 and 1 (3×) and 0.7607
  n (fitted parameter): 1
[2]; [11]
  MAX, fitted average curve: 1
  n, FITTED AVERAGE CURVE: 0.855
[3]
  response: 38.5%
[4]
  EC50: 239 ± 76 µM

## CCc1ccc(NC(=O)CSc2nnc(-c3cccnc3)n2CC)cc1 [VUAA1, reference compound]
[5]
  response in assay buffer lacking Ca2+: Neither of the cell lines responded
[6]
  response in assay buffer lacking Ca2+: Neither of the cell lines responded
[7]
  DF norm, all technical replicates: 1
  DF norm, outlier technical replicates removed: 1
  DF, outlier technical replicates removed: 1.743
[7]; xc+0.1%DMSO
  DF, all technical replicates: 1.743
[8]; ORCO agonist VUAA1, highest over OR cell lines
  peaks of fluorescence intensity change: ≤ 462%
[8]; all cell lines, including the four non-responding OR lines
  response of the cell lines to VUAA1: responded
